# Experimental data published in EPA's ToxValDB 9.5 (doi:10.2903/j.efsa.2008.124r).
# What was measured:
# [1] = system: Apis mellifera; conditions: acute, mortality
# [2] = system: Folsomia candida; conditions: chronic/long-term; duration: 28 days
# [3] = system: Colinus virginianus
# [4] = system: Bibionidae; conditions: chronic/long-term; duration: 28 days; development
# [5] = system: Tagia sp.; conditions: acute; duration: 14 days; mortality
# [6] = system: Phasianus sp.; conditions: acute; oral; unspecified; mortality
# [7] = system: Anas platyrhynchos; conditions: acute; oral; unspecified; mortality
# [8] = system: Lepomis macrochirus; conditions: acute; duration: 96 hours; mortality
# [9] = system: Oncorhynchus mykiss; conditions: chronic/long-term; duration: 21 days; mortality
# [10] = system: Rattus norvegicus
# [11] = system: Daphnia magna; conditions: chronic/long-term; duration: 21 days; mortality
# [12] = system: Canidae; conditions: chronic; duration: 1 years; oral; Dog Other; organ weight
structure (smiles),measurement,setting,value
CC(Cc1ccc(C(C)(C)C)cc1)CN1CCCCC1 (stereo unspecified) [Fenpropidin],LD50,[1]; dermal,46 µg/piece
same,LD50,"[1]; oral, unspecified",> 10 µg/piece
same,NOEC,[2],46.5 mg/kg
same,LD50,"[3]; acute, oral, diet, mortality",> 1420 mg/kg-day
same,NOAEL,[3]; reproduction developmental,14.6 mg/kg-day
same,NOEC,[4],1 mg/L
same,LC50,[5],> 500 mg/kg
same,LD50,[6],369 mg/kg-day
same,LD50,[7],1900 mg/kg-day
same,LC50,[8],1.9 µg/mL
same,NOEC,[9],0.32 mg/L
same,LD50,"[10]; acute, mortality",1450 mg/kg-day
same,NOAEL,"[10]; chronic, duration: 2 years, body weight",2.27 mg/kg-day
same,NOAEL,[10]; reproduction developmental,60.2 mg/kg-day
same,NOEC,[11],0.32 mg/L
same,NOAEL,[12],2 mg/kg-day
